The target in one assay is Phosphoglucose isomerase (Homo sapiens, UniProt P06744). In words: Phosphoglucose isomerase activity under gas. It counts as biochemical. Conditions: for effect: phosphoglucose isomerase; for effect, stressed: stressed = nonoptimal substrate concentration or temperature. On the procedure:
(§1) Solution preparation: Optimized w/v solutions are prepared by diluting the enzyme (units/ml) and the substrate (μg/ml) in appropriate buffer (optimized pH and molarity for enzymes). The solutions are used for gas experiments at once to avoid loss of activity. Various enzyme and substrate concentrations and inhibitors may be employed. Physical parameters are varied as required.
Preparation of samples: Cuvets are filled with 2 ml of substrate solution by means of a gas-tight syringe. Gas-tight serum vials are filled with enzyme and solvent. Sufficient gas is consecutively bubbled in the cuvets and serum vials, with a 1-hr wait between injections to maximize equilibration of gas. All syringes and dead spaces are purged before filling with the appropriate gas. The amount of gas used has been measured sufficient to saturate the solution required.
Spectrophotometric time-drive, reaction rate, and kinetic analyses: cuvets and serum vials are saturated with gas 40 minutes before the run. A gas-filled syringe is used to retrieve 0.5 ml of enzyme solution to avoid air contact. The 0.5 ml syringe injections of enzyme are made simultaneously to effect a common starting time to for the samples. 7 gases (air, O2, N2, Ne, Ar, Kr, Xe) are run at various temperatures each (from 0° to 60° ). Changes in the rate or final equilibrium of the reaction versus ambient air are recorded. Comparison is also made with added oxygen, and with deoxygenation. Some samples are also prepared under pressure.
In a complete experiment, an enzyme at optimal pH and buffering salt concentration is reacted with 5 substrate concentrations in solution with noble gas at 1 atm. […] Controls are also run after evacuation of solution by vacuum. The reaction is monitored colorimetrically in a scanning spectrophotometer in real time, and the signals are treated mathematically to obtain rate and yield differences. Sample numbers are constant and sufficient to ensure significance of results. All parameters are independently controlled and measured, and more complex experiments are occasionally carried out.

Another assay deals with β-D-Glucosidase. Briefly: High pressure experiments, β-D-glucosidase. It counts as biochemical, Almonds. How it is done: Experiments were conducted in pressure cells pressurized with additional test gas after solution was already saturated, at 2 atmospheres or at 3 atmospheres in real-time, or after pressurizing in a 1-liter cylinder for 1 hour or ~24 hours at 30.6 atmospheres and at 100 atmospheres.
Rinse the cylinders with copious quantities of D.I. H2 O. Then rinse the cylinders with the second enzyme solution (glucosidase). Place a 25 ml aliquot of enzyme solution into each of 2 disposable gas cylinders. Shake the enzyme in each cylinder for several minutes and then remove a 5 ml sample for Control B and Control C.
Remove cylinders to the dock, gassing with the appropriate gas; bring pressure slowly up to 30.6 atm. Let sit at the required pressure for 60 minutes. Slowly depressurize to 2 psi before bringing into the lab.
Bring the cylinders back to the dock and repressurize to 100 atm with the appropriate gas. Let sit at the required pressure for 60 minutes. Slowly depressurize to 2 psi before bringing into the lab.
Cuvettes were filled for the 2 atm experiments for both enzymes. Each cuvette was gassed 10×10 cc with the appropriate gas and refrigerated for 15 minutes prior to running. Serum vials were filled with 5 cc of the corresponding enzyme and gassed with 10×10 cc of the appropriate gas prior to running. The spectrophotometers were set up such that a continuous flow of each gas could be delivered to each spectro at all times. A 100 psimax gauge was installed to read the cuvette pressure and 2 on/off valves were installed so that the reference cell could be pressurized during the second replicate. A ball valve was installed between the cylinder/house line and the gauge so that gas flow could be controlled directly at the spectrophotometers. A check valve was placed in each line to ensure that a back pressure would not cause contamination of the house lines or the gas cylinders. The cuvettes retained the 2 needles during the entire run. One of the needles was attached to the gas line while the second was used for enzyme introduction and then plugged. Due to the bulky nature of the assembly it was impossible to use the installed doors of the spectrophotometers therefore they were removed. A 4-layer thick black felt cover was prepared for each spectro to minimize the amount of light entering the system.
While the cuvette was equilibrating to temperature in the spectrophotometer both needles remained in the cuvette with 10 cc syringes still attached. Prior to enzyme introduction one of the syringes was removed while the gas line was attached to the needle. A small flow of gas run through the line while this was done to ensure that there was no oxygen contamination. The needles remained above the liquid level. The second syringe was removed to allow constant flow through the cuvette. The enzyme was injected through the second needle using a 1 cc syringe. The needle was then plugged, the cuvette pressurized and the run begun.
A nonpressurized gas run using all four gases was done for each enzyme. Each cuvette was gassed with 10×10 cc of the corresponding gas and refrigerated for 15 minutes. The 2 needles used for gassing the cuvettes were removed when the cuvettes were placed into the spectrophotometer. Enzyme was introduced into the cuvettes using a 1 cc syringe with a 20G11/2 needle attached. The needle was placed into the cuvette through the silicone plug but not immersed into the liquid. This was to ensure that enzyme introduction into the cuvette was the same as for the pressurized gas run.
The same method as used in Trial 2 on Apr. 30, 1991 was used for this trial.
At 3 atmospheres pressure, the degree of enhancement observed was changed as follows: […]

For the next assay, the system named is transferase enzymes. Briefly: Transferases, effects for the class. It counts as biochemical. How it is done:
as §1
(§2) Preparation of samples: Cuvets are filled with 2 ml of substrate solution by means of a gas-tight syringe. Gas-tight serum vials are filled with enzyme and solvent. Sufficient gas is consecutively bubbled in the cuvets and serum vials, with a 1-hr wait between injections to maximize equilibration of gas. […] The amount of gas used has been measured sufficient to saturate the solution required.
(§3) Spectrophotometric time-drive, reaction rate, and kinetic analyses: cuvets and serum vials are saturated with gas 40 minutes before the run. […] Changes in the rate or final equilibrium of the reaction versus ambient air are recorded. […]
(§4) In a complete experiment, an enzyme at optimal pH and buffering salt concentration is reacted with 5 substrate concentrations in solution with noble gas at 1 atm. […] The reaction is monitored colorimetrically in a scanning spectrophotometer in real time, and the signals are treated mathematically to obtain rate and yield differences. […]

A further assay deals with hydrolases. Briefly: Hydrolases, effects for the class. It is filed as biochemical. How it is done: as §1, §2, §3, §4
A further assay has as its system lactate dehydrogenase. Briefly: Lactate dehydrogenase activity under gas. It counts as biochemical. The settings on record: 10° C., FIG. 42. On the procedure:
Solution preparation: Optimized w/v solutions are prepared by diluting the enzyme (units/ml) and the substrate (μg/ml) in appropriate buffer (optimized pH and molarity for enzymes). The solutions are used for gas experiments at once to avoid loss of activity. Various enzyme and substrate concentrations and inhibitors may be employed. Physical parameters are varied as required. […] Gas-tight serum vials are filled with enzyme and solvent. Sufficient gas is consecutively bubbled in the cuvets and serum vials, with a 1-hr wait between injections to maximize equilibration of gas. All syringes and dead spaces are purged before filling with the appropriate gas. The amount of gas used has been measured sufficient to saturate the solution required. Spectrophotometric time-drive, reaction rate, and kinetic analyses: cuvets and serum vials are saturated with gas 40 minutes before the run. A gas-filled syringe is used to retrieve 0.5 ml of enzyme solution to avoid air contact. […] Changes in the rate or final equilibrium of the reaction versus ambient air are recorded. Comparison is also made with added oxygen, and with deoxygenation. Some samples are also prepared under pressure.

The next assay deals with lyase enzymes. Briefly: Lyases, effects for the class. It is filed as biochemical. How it is done: as §1, §2, §3, §4
Where [1] appears, read: at 3 atmospheres pressure (value after the > sign), minus = inhibition.
Where [2] appears, read: before pressurization (value before the > sign).

Each structure is given as a SMILES string.

Regarding `[Kr]` [Kr, krypton], the “effect on phosphoglucose isomerase” value on Phosphoglucose isomerase (10° C., FIG. 34) is on record as “enhancement”. Besides, the effect entry at Phosphoglucose isomerase was “+206.4%”. Also, the “degree of enhancement observed” value in the assay with β-D-Glucosidase (setting [1]) was -6.2; with β-D-Glucosidase (setting [2]), “+2.0”. Further, in the assay with transferase enzymes, the effect on transferases result is “largest inhibitory or effect”. Further, the effect on hydrolases result in the assay with hydrolases is on record as “least such effect”.

For `[Xe]` [Xe, xenon], on Phosphoglucose isomerase (10° C., FIG. 34), the “effect on phosphoglucose isomerase” value is given as “enhancement”. Moreover, on Phosphoglucose isomerase, the effect result is on record as “+186%” and the “effect, stressed” value is recorded as -61%. Also, the “degree of enhancement observed” value in the assay with β-D-Glucosidase (setting [1]) is on record as -15.7. In addition, the “degree of enhancement observed” value in the assay on β-D-Glucosidase (setting [2]) is given as “+3.1”. For the same molecule, the “effect on lactate dehydrogenase” value in the assay on lactate dehydrogenase was “enhancing”. The effect on hydrolases result in the assay on hydrolases was “largest enhancing effect”. Moreover, the effect on lyases result with lyase enzymes was “largest enhancing effect”.

Turning to `[Ar]` [Ar, argon], on Phosphoglucose isomerase (10° C., FIG. 34), the “effect on phosphoglucose isomerase” value is “enhancement”. At Phosphoglucose isomerase, the effect result is reported as “+232.5%”. Further, the figures for the “degree of enhancement observed” value in the assay on β-D-Glucosidase (setting [1]) and with β-D-Glucosidase (setting [2]) were -13.2 and “+1.0”, respectively. Moreover, the effect on lyases result with lyase enzymes is recorded as “least such effect”.

In the case of `N#N` [N2, nitrogen, reference compound], the “effect on phosphoglucose isomerase” value on Phosphoglucose isomerase (25° C., FIG. 35) is “enhancement”. In addition, the “effect on β-glucosidase” value with β-D-Glucosidase (30 atm. pressure, FIG. 38) is “inhibitory effect”; in the assay with β-D-Glucosidase (100 atm. pressure, 25° C., FIG. 37), “inhibitory effect”. The “degree of enhancement observed” value with β-D-Glucosidase (setting [1]) is given as -5.0; in the assay on β-D-Glucosidase (setting [2]), 0.

In the case of `[Ne]` [Ne, neon], the “effect on phosphoglucose isomerase” value at Phosphoglucose isomerase (25° C., FIG. 35) is “enhancement”. Also, at Phosphoglucose isomerase, the effect result is on record as “+107%” and the “effect, stressed” value is listed as -45%. Further, the “degree of enhancement observed” value in the assay on β-D-Glucosidase (setting [1]) is -12.5. For the same molecule, the “degree of enhancement observed” value in the assay with β-D-Glucosidase (setting [2]) is reported as “+1.0”. In the assay on lactate dehydrogenase, the “effect on lactate dehydrogenase” value is “inhibiting”. Besides, in the assay with transferase enzymes, the effect on transferases entry was “lowest inhibitory or enhancing effect”.

For the origin of these results see patent US5462861A, “Method for improving enzyme activities with noble gases” (American Air Liquide, Chicago Research Center, priority 1993, dated 1995).
